Values after ≈ are worked out from the molar mass of the structure shown.
Key:
A375 human melanoma = test: SC tumor xenograft growth, A375; assay type: in vivo; conditions: IP in DMSO, 75 mg/kg/d dosed 3x/week
Protocol: (§1) In most experiments, compound was administered daily.
(§2) Tumor growth was measured using venier calipers. Tumor volumes were calculated as the produce of length x width x height.

pH solubility profile = assay type: physicochemical; conditions: 0.1 M phosphate buffer, thermodynamic from solid
Protocol: The solution was filtered, appropriate dilutions made and the concentration of the compound in the supernatant was analyzed by a reverse phase HPLC method.

C6 cells = test: Efficacy on established C6 SC tumors; assay type: in vivo, athymic mice; conditions: IP 75 mg/kg/day, onset delayed until measurable tumors were present (Day 7)
[1] = system: EpH4-VEGF1 murine epithelial; test: SC tumor xenograft growth, EpH4-VEGF1; assay type: in vivo; conditions: IP in DMSO, 75 mg/kg/d daily
Protocol: as §1, §2

SF763T human glioma = test: SC tumor xenograft growth, SF763T; assay type: in vivo, BALB/c nu/nu mice; conditions: IP in DMSO, 75 mg/kg/d daily
Protocol: (§3) Medium was changed every two to three days.
as §1, §2

A431 human epidermal = test: SC tumor xenograft growth, A431; assay type: in vivo, BALB/c nu/nu mice; conditions: IP in DMSO, 100 mg/kg/d daily
Protocol: as §1, §2

physchem = assay type: physicochemical
C6 rat glioma = test: SC tumor xenograft growth, C6, treatment from one day post-implantation; assay type: in vivo, BALB/c nu/nu mice; conditions: IP
Protocol: as §1, §2

Flk-1/KDR = Flk-1/KDR (Homo sapiens, UniProt P35968); test: Inhibition of signal transduction via Flk-1/KDR
Sequence of Flk-1/KDR (P35968 20-1356): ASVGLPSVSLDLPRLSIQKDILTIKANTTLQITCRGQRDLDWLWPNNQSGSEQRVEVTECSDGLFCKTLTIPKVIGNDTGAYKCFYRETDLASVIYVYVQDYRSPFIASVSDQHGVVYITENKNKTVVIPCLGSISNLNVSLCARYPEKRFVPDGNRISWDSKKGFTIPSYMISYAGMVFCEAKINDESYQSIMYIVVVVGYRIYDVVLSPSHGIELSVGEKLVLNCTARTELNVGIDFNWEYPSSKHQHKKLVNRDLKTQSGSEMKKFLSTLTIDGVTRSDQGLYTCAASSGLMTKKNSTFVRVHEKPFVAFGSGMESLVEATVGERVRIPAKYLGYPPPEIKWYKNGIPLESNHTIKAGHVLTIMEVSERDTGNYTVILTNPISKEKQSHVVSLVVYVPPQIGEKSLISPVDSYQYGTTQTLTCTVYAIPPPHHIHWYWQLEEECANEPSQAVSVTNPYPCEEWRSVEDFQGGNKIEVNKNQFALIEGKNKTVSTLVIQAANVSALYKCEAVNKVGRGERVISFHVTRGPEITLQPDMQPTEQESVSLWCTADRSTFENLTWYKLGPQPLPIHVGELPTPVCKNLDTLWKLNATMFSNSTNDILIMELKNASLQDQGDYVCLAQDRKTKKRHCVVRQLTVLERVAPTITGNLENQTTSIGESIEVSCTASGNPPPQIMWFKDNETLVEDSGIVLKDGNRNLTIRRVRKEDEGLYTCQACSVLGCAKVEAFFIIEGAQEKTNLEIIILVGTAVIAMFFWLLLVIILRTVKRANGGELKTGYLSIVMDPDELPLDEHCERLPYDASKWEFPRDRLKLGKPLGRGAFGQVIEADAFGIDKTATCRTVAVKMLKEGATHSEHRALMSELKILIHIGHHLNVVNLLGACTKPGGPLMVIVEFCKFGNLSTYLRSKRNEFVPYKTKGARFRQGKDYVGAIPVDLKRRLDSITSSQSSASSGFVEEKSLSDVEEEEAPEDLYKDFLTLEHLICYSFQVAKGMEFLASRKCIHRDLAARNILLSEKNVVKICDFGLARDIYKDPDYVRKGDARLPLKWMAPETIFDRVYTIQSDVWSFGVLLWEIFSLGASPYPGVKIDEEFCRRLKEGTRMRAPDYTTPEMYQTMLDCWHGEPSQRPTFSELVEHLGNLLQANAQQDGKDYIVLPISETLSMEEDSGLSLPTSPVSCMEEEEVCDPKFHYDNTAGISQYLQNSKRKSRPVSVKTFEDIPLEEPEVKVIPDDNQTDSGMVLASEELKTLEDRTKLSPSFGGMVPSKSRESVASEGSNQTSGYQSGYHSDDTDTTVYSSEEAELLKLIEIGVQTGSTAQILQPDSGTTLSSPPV

FGF receptor = test: Inhibition of signal transduction via FGF receptor
SF767T human glioma = test: SC tumor xenograft growth, SF767T; assay type: in vivo, BALB/c nu/nu mice; conditions: IP in DMSO, 75 mg/kg/d daily
Protocol: as §3, §1, §2

PDGF receptor = test: Inhibition of signal transduction via PDGF receptor
[2] = Oral bioavailability of formulations in beagle dogs; assay type: in vivo; conditions: at higher doses in fasted conditions
Protocol: The formulation described below enhance the oral bioaviability of COMPOUND IV in beagle dogs, a preclinical absorption model.
Both formulations contain 50 mg/gm of Pluroanic F-68. The formulation at 50 mg/gm of COMPOUND IV contains 900 mgs of sesame oil and the one that contains 250 mg/gm of COMPOUND IV contains 700 mgs of sesame oil.
AUC refers to the area under the curve of the plasma concentration time curve and represents oral bioavilability (BA). Higher AUC indicates higher BA.

[3] = Solubility of in situ salts versus free acid; assay type: physicochemical

For Cc1[nH]c(C=C2C(=O)Nc3ccccc32)c(C)c1CCC(=O)O [3-[2,4-Dimethyl-5-(2-oxo-1,2-dihydro-indol-3-ylidenemethyl)-1H-pyrrol-3-yl]-propionic acid], the “% Mortality” value (A375 human melanoma) was 0%, the solubility (pH solubility profile; pH 6, aqueous buffer, pH of buffer 6.0 (0.1 M phosphate), average pH at equilibrium 6.06, two lots) was 0.0024 mg/mL (≈ 7.73 µM) and the solubility (pH solubility profile; pH 6.5, aqueous buffer, pH of buffer 6.5 (0.1 M phosphate), average pH at equilibrium 6.52) was 0.004 mg/mL (≈ 12.9 µM). The solubility (pH solubility profile; pH 7, aqueous buffer, pH of buffer 7.0 (0.1 M phosphate), average pH at equilibrium 6.96) was 0.009 mg/mL (≈ 29 µM), the solubility (pH solubility profile; pH 7.4, aqueous buffer, pH of buffer 7.4 (0.1 M phosphate), average pH at equilibrium 7.39) was 0.019 mg/mL (≈ 61.2 µM) and the “efficacy on established tumors” value (C6 cells) was “efficacious”. For the same compound, the “% Mortality” value [1] was 0%, the “% Mortality” value (SF763T human glioma) was 12.5% and the “% Mortality” value (A431 human epidermal) was 12.5%. The logP (physchem) was 3.85, the pKa (physchem) was 5.02 and the logD (physchem; pH 7.4) was 1.5. For the same compound, the “% Inhibition (at day)” value (C6 rat glioma; 25 mg/kg Daily × 5, day 18, ns (P > 0.05)) was 1 (18) %, the tumor growth inhibition (C6 rat glioma; 100 mg/kg twice weekly or three times weekly, statistically significant) was “approximately 40%” and the “inhibitor of signal transduction via Flk-1/KDR” value (Flk-1/KDR) was “potent inhibitor”. For the same compound, the “inhibitor of signal transduction via FGF receptor” value (FGF receptor) was “potent inhibitor”, the “% Mortality” value (SF767T human glioma) was 12.5% and the “inhibitor of signal transduction via PDGF receptor” value (PDGF receptor) was “potent inhibitor”.

For Cc1[nH]c(/C=C2\C(=O)Nc3ccccc32)c(C)c1CCC(=O)O [COMPOUND IV, 3-[2,4-dimethyl-5-(2-oxo-1,2-dihydro-indol-3-ylidenemethyl)-1H-pyrrol-3-yl]-propionic acid], the oral bioavailability [2] was “low bioavailability”.

For Cc1[nH]c(C=C2C(=O)Nc3ccccc32)c(C)c1CCC(=O)O [Meglumine, 3-[2,4-dimethyl-5-(2-oxo-1,2-dihydro-indol-3-ylidenemethyl)-1H-pyrrol-3-yl]-propionic acid], the solubility ([3]; aqueous solution of the salt formed in situ, salt of 3-[2,4-dimethyl-5-(2-oxo-1,2-dihydro-indol-3-ylidenemethyl)-1H-pyrrol-3-yl]-propionic acid, in situ salt formation, pH in the column beside, read-out: Solubility) was 7.9 mg/mL.

With Cc1[nH]c(C=C2C(=O)Nc3ccccc32)c(C)c1CCC(=O)O [free acid, 3-[2,4-dimethyl-5-(2-oxo-1,2-dihydro-indol-3-ylidenemethyl)-1H-pyrrol-3-yl]-propionic acid] the solubility ([3]; water, aqueous, sodium salt compared to free acid, read-out: solubility) was < 0.1 mg/mL and the solubility ([3]; water, free acid, for comparison with the sodium salt, read-out: aqueous solubility) was ~0.03 mg/mL.
